Results from patent US9921406B2, “Targeted dual-axes confocal imaging apparatus with vertical scanning capabilities” (THE REGENTS OF THE UNIVERSITY OF MICHIGAN, priority 2009, dated 2018).
Entries after “also recorded” stand apart in the source; their conditions may differ.

Experiments:
CXCR4 = target: T1, CXCR4 (Homo sapiens, UniProt P61073); assay: Luciferase complementation for recruitment of β-arrestin to CXCR4; assay type: cell-based
T1 construct: expressed in transfected cells

CXCR7 = target: T2, CXCR7 (Homo sapiens, UniProt P25106); assay: CXCR7/β-arrestin 2 firefly luciferase complementation assay for CXCR7 activation; assay type: cell-based
T2 construct: expressed in transfected cells; host or cells: reporter cells stably expressing the CXCR7/β-arrestin 2 PCA
From the text: Binding of synthetic or natural ligands to 7-transmembrane receptors activates the receptor, resulting in receptor activation and recruitment of β-arrestin, a cytosolic adapter protein. The protein interaction between CXCR7 and β-arrestin 2 has been used to develop a protein fragment complementation assay for detecting activation of CXCR7. […] Ligand-dependent interaction of CXCR7 and β-arrestin 2 also brings together NLuc and CLuc fragments, which reconstitutes active firefly luciferase.
Ligands for CXCR7 activate the receptor, causing recruitment of β-arrestin. To determine to what extent the engineered knottin interacts with CXCR7, firefly luciferase complementation for CXCR7 activation was used as a reporter for binding of the peptide to the receptor. CXCR7/β-arrestin reporter cells were incubated with increasing concentrations of CXCR7-targeted knottin for 2 hours and then luciferase activity was quantified in living cells.

[1] = test system: adenomas (dysplastic polyps) in the rectum; assay: In vivo fluorescence endoscopy of topically applied peptide in CPC;APC mouse model of colon cancer; details: FITC-labeled peptide 10 μM, 1 ml topical, ~10 minute dwell, PBS rinse
From the text: This small animal endoscope (Karl Storz Veterinary Endoscopy, Goleta, Calif.) consists of a 9.5 Fr (3 mm) diameter rigid Hopkins II 0 deg telescope with a 11.5 cm working length and a 3 Fr (1 mm) diameter instrument channel for performing tissue biopsy. Fluorescence excitation is produced with a 450 to 475 nm passband filter that can be manually switched into the optical path of a 175 W Nova Xenon light source, and is delivered to the endoscope via a 3 mm diameter fluid light cable with 250 cm length. Fluorescence images are collected with 510 nm barrier filter to block the excitation light, and are detected with a 3-chip color camera with an integrated parfocal zoom lens. Real time video can be recorded via firewire connected to a personal computer.
The rectum of the mouse was first cleaned of stool and debris by performing tap water lavage, and then the distal end of the small animal endoscope was lubricated and inserted into the rectum of the mouse. Once adenomas were identified on white light, shown in FIG. 25A, a 1 ml solution of FITC-labeled peptide “VRPMPLQ” at a concentration of 10 μM was applied through the instrument channel with a syringe, and allowed to dwell for ˜10 minute, followed by gentle rinsing with PBS. […] The rectum was then rinsed vigorously with PBS. Complete removal of the peptide from the rectal mucosa was observed on fluorescence. […]

colonic adenoma = details: topical, cited from earlier work

T2 sequence (P25106 whole entry, species assumed): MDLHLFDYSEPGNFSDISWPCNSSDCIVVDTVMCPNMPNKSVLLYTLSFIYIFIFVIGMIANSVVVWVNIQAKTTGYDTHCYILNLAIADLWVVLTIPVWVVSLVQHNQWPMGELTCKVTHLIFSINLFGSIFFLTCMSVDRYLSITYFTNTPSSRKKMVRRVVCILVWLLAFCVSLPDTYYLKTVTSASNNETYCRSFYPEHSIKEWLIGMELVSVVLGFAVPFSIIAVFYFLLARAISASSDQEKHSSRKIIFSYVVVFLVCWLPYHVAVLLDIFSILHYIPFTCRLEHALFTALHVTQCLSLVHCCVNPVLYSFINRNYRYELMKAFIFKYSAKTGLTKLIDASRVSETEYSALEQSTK
T2 sequence (P32121 whole entry partner, species assumed): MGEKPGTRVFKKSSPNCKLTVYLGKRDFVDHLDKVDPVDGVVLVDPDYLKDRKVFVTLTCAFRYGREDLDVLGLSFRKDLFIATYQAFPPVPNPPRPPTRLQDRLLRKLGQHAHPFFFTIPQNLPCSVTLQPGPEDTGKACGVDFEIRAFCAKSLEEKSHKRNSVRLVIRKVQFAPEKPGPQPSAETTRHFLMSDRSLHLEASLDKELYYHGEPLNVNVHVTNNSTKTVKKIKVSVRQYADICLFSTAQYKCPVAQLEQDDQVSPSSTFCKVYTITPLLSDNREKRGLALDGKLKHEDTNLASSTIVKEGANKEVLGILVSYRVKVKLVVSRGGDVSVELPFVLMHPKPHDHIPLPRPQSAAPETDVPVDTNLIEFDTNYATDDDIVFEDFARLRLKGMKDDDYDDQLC
T1 sequence (P61073 whole entry, species assumed): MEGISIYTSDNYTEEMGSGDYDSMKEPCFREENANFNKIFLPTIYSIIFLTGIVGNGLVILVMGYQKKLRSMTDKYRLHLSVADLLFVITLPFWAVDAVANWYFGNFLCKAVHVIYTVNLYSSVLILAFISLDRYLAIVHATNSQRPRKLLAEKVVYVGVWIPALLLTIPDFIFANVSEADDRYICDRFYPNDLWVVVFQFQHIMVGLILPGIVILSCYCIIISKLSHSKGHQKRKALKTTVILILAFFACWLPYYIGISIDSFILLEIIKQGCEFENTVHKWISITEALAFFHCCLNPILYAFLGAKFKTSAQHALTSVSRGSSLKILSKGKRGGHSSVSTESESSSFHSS

Substance | activation of CXCR4 (recruitment of β-arrestin) (CXCR4) | selectivity CXCR7 versus CXCR4 (CXCR7; from luciferase complementation for both receptors) | activation of CXCR7 (bioluminescence) (CXCR7; reporter cells, living cells, knottin incubated 2 hours with increasing concentrations) | peptide binding to adenomas (fluorescence image) [1] | peptide binding seen in fluorescence image, adenoma versus normal mucosa (colonic adenoma; 50 μm depth, FIG. 23B) | average contrast ratio (adenoma:normal fluorescence intensity) (colonic adenoma; imaged at 50 μm depth, n=10 adenomas and adjacent normal mucosa)
GGCKPVSLSYRAPARFCKQDSDCLAGCVCGPNGFCGSA [CXCR7-targeted knottin] | did not activate CXCR4 | selectively interacts with CXCR7 and not CXCR4 | increased bioluminescence; also recorded: dose-dependent activation of CXCR7 | – | – | –
QLMRPPV [FITC-labeled scrambled (control) peptide, reference compound] | – | – | – | significantly less fluorescence intensity; also recorded: reduced binding | – | –
VRPMPLQ [7mer peptide from phage display, conjugated to fluorescein using a hexanoic acid linker to the N-terminus] | – | – | – | preferential peptide binding to the adenomas; also recorded: affinity binding | significant peptide binding to colonocytes surrounding dysplastic crypts (adenoma) | 21±6
